Experimental data from US20050159345A1 (Boehringer Ingelheim International GmbH, priority 2002, published 2005).
pEC50, pIC50: −log10 of the molar value. Like-named read-outs stand apart in the source and are kept apart here.

What was measured:
[1] = target: T1, HCV 2a-c NS3-NS4A heterodimer protein (UniProt P26660); assay: In vitro HCV NS3 protease assay (fluorogenic depsipeptide), genotype 2a-c; assay type: biochemical, HCV genotype 2a-c; details: read-out: IC50 HCV-2a-c; HCV 2a-c NS3-NS4A protease
T1 sequence (P26660 1031-1661): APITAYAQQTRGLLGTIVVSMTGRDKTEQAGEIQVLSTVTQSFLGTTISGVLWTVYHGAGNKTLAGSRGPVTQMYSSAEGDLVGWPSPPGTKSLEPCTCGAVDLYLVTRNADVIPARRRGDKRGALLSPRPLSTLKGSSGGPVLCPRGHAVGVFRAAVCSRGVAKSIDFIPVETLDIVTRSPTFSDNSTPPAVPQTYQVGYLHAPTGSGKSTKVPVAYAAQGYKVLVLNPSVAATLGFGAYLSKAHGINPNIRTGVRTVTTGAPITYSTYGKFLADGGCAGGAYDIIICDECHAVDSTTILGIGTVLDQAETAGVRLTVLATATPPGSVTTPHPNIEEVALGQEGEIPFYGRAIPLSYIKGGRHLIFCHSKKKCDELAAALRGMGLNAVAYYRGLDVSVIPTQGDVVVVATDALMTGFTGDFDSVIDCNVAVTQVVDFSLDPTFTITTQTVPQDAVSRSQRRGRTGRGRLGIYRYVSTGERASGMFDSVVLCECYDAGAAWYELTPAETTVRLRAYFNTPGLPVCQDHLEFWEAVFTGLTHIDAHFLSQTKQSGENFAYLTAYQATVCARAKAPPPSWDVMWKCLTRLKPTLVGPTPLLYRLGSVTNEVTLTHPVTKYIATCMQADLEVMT
Experimental: The fluorogenic depsipeptide substrate used to assess inhibition of protease activity of the HCV 1a, 1b, 2b, 2a-c and 3a NS3-NS4A heterodimer protein was anthranilyl-DDIVPAbu[C(O)—O]-AMY(3-NO2)TW—OH (SEQ ID No.10). This substrate is cleaved between the aminobutyric (Abu) and the alanine residues. The sequence DDIVPAbu-AMYTW (SEQ ID No.11) is derived from the sequence DDIVPC—SMSYTW (SEQ ID No.12) corresponding to the NS5A/NS5B natural cleavage site. […] The protease activity was assayed in 50 mM Tris-HCl, pH 8.0, 0.25M sodium citrate, 0.01% n-dodecyl-β-D-maltoside, 1 mM TCEP. The assay was performed in a Microfluor®2 White U-Bottom Microtiter® plate. 5 μM of the substrate and various concentrations of the test compound were incubated with 1.5 nM of HCV 1a or 1b NS3-NS4A heterodimer protein for 45 minutes at 23° C. under gentle agitation. […] The reaction was terminated by the addition of a 1M 2-[N-morpholino]ethanesulfonic acid solution at pH 5.8.
The fluorescence was monitored using the BMG POLARstar Galaxy 96-well plate reader with an excitation filter of 320 nm, and an emission filter of 405 nm. The level of inhibition (% inhibition) of each well containing test compound was calculated with the following equation (FU=fluorescence unit): [formula]
The calculated % inhibition values were then used to determine IC50, slope factor (n) and maximum inhibition (Imax) by the non-linear regression routine NLIN procedure of SAS using the following equation: [formula] Inhibition Constant (Ki) Determination and mode of Inhibition

HCV replicon 1b = assay: Cell-based HCV 1b RNA replicon assay; details: Hepatitis C virus, 72 h; Huh-7-derived replicon cells, 3 day incubation, HCV RNA by RT-PCR
Experimental: (§1) These cells were used to establish a sensitive HCV RNA replication cell-based assay for testing candidate test compounds.
(§2) Huh7 cells that stably maintain a subgenomic HCV replicon were established as previously described (Lohman et al. 1999; WO 02/052015). The cells were seeded into a 96 well cell culture cluster at 1×10^4 cells per well in DMEM complemented with 10% FBS, PenStrep (Life Technologies) and […] Geneticin. Cells were incubated in a 5% CO2 incubator at 37° C. until addition of various concentrations of the test compound.
(§3) The test compound was prepared for use in the assay as follows. The test compound in 100% DMSO was added diluted in assay Medium for a final DMSO concentration of 0.5% and the solution was sonicated for 15 min and filtered through a […] Millipore Filter Unit. Serial dilutions of the test compounds were prepared using Assay Medium (containing 0.5% DMSO).
(§4) Cell culture medium was aspirated from the 96-well plate containing the cells and the appropriate dilution of test compound in assay medium was transferred to independent wells of the cell culture plate which was incubated at 37° with 5% CO2.
(§5) Following a 3 day-incubation period, the cells were washed with PBS and total cellular RNA was extracted with the RNeasy Mini Kit® and Qiashredder® from Qiagen. RNA from each well was eluted in 50 μL of H2O. RNA was quantified by optical density at 260 nm on the Cary 1E® UV-Visible spectrophotometer. The HCV RNA replicon copy number was evaluated by real-time RT-PCR with the Abi Prism® 7700 Sequence Detection System. The TAQMAN E® RT-PCR kit provides a system for the detection and analysis of RNA. Direct detection of the reverse transcription polymerase chain reaction (RT-PCR) product with no downstream processing was accomplished by monitoring the increase in fluorescence of a dye-labeled DNA probe. The nucleotide sequence of both primers and probe was located in the 5′ region of the HCV genome. The replicon copy number was then evaluated using a standard curve made with known amounts of replicon copy (supplemented with 50 ng of wild type Huh-7 RNA) assayed in the same reaction mix. The following thermal cycle parameters were used for the RT-PCR reaction on the ABI Prism® 7700 Sequence Detection System. Conditions were optimized for HCV detection. Quantification is based on the threshold cycle, where the amplification plot crosses a defined fluorescence threshold. Comparison of the threshold cycles provides a highly sensitive measure of relative template concentration in different samples. Monitoring during early cycles, when PCR fidelity is at its highest, provides precise data for accurate quantification. The relative template concentration can be converted to real numbers by using the standard curve of HCV with known number of copy.
(§6) The level of inhibition (% inhibition) of each well containing test compound was calculated with the following equation (CN═HCV Replicon copy number): [formula]
(§7) The calculated % inhibition values were then used to determine EC50, slope factor (n) and maximum inhibition (Imax) by the non-linear regression routine NLIN procedure of SAS using the following equation: [formula]

[2] = target: T2, GBV-B NS3-NS4A heterodimer protein (Hepatitis GB virus B, UniProt Q69422); assay: In vitro GBV-B NS3 protease assay (HPLC); assay type: biochemical
T2 construct: The full length GBV-B NS3/NS4A protease gene was isolated from infected tamarin serum; made in house; host or cells: E. coli BL21 DE3 pLysS (pET-29)
T2 sequence (Q69422 1565-1615): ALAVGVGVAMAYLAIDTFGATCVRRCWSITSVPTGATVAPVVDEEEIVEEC
T2 sequence (Q69422 941-1564): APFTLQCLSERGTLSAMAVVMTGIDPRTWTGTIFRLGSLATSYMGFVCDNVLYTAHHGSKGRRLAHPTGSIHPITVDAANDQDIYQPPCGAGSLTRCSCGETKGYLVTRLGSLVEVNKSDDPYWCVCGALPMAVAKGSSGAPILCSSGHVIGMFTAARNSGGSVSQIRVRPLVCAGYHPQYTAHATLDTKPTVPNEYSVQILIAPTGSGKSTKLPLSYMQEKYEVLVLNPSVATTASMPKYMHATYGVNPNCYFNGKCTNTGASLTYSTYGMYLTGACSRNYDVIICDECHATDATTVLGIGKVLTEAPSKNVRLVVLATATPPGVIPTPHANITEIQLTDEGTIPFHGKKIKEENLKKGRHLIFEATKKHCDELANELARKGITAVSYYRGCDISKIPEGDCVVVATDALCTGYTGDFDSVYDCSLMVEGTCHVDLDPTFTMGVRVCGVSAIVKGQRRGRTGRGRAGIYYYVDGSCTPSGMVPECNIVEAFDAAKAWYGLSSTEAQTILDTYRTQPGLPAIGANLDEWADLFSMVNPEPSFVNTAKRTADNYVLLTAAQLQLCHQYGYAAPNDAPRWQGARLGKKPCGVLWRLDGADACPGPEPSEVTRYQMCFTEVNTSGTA
Experimental: The depsipeptide substrate used to assess inhibition of the protease activity of GBV-B NS3-NS4A heterodimer protein was Ac-DED(EDANS)EE-Abu[C(O)—O] ASK(DABCYL)-NH2 (SEQ ID No. 16) This substrate is cleaved between the aminobutyric (Abu) and the alanine residues and products of the reaction were analyzed by HPLC. The protease activity was assayed in 50 mM Tris-HCl;, pH 8.0, 0.25M sodium citrate, 0.01 % n-dodecyl-β-D-maltoside, 1 mM TCEP. The assay was performed in a Microfluor®2 White U-Bottom Microtiter® plate. 5 μM of the substrate and various concentrations of the test compounds were incubated with 0.4 nM of GBV-B NS3-NS4A heterodimer protein for 2 hours at 23° C. under gentle agitation. […] The reaction was terminated by the addition of a 1M 2-[N-morpholino]ethanesulfonic acid solution at pH 5.8. For quantification, the cleavage products and the substrate were separated by HPLC on a Perkin-Elmer® 3×3CR C8 column. The separation was accomplished by initially eluting at 3.5 mL/min with an aqueous solution containing 0.05% phosphoric acid and 3 mM SDS. A 0 to 45% acetonitrile linear gradient in 0.05% phosphoric acid was then applied for 10 minutes. The absorbance was monitored at 210 nm.

HCV replicon 1a = assay: Cell-based HCV 1a RNA replicon assay; details: Hepatitis C virus, 72 h; Huh-7-derived replicon cells, 3 day incubation, HCV RNA by RT-PCR
Experimental: as §1, §2, §3, §4, §5, §6, §7

[3] = target: T3, HCV 1a NS3-NS4A heterodimer protein (Hepatitis C virus genotype 1a, UniProt P27958); assay: In vitro HCV NS3 protease assay (fluorogenic depsipeptide), genotype 1a; assay type: biochemical
T3 construct: Co-purification of mature NS3 and NS4A protein complex was verified by Western blot analysis; made in house; host or cells: Sf21 insect cells, recombinant baculovirus (pFastBac HTa)
T3 sequence (P27958 1027-1657): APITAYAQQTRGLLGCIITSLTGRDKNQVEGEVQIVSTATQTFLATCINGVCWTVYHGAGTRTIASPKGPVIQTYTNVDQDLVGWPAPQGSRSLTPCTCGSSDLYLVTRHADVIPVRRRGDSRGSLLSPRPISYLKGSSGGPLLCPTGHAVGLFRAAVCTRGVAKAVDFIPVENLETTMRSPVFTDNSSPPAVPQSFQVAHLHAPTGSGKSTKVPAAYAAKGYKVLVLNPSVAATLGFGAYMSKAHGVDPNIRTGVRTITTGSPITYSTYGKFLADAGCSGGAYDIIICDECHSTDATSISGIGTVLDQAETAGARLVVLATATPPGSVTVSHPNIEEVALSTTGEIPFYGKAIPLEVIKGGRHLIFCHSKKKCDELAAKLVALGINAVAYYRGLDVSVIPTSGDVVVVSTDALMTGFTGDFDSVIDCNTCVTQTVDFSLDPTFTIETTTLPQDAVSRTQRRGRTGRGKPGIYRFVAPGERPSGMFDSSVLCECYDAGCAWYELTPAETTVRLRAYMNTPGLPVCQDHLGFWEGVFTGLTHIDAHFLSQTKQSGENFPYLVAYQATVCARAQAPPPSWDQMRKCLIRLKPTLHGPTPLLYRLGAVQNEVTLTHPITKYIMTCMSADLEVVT
T3 sequence (P27958 1658-1711): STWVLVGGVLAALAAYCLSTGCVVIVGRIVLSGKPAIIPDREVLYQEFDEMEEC
Text: For production of the HCV genotype 1b NS3-NS4A heterodimer protein, a full-length HCV cDNA was cloned by RT-PCR using RNA extracted from the serum of an HCV genotype 1b infected individual (provided by Dr. Bernard Willems, Hôpital St-Luc, Montréal, Canada). […] For HCV genotype 1a, the DNA encoding NS3-NS4A heterodimer protein was PCR-amplified (forward primer: 5′[sequence]3′ (SEQ ID No.3); reverse primer: 5′[sequence]3′ (SEQ ID No.4)) from the HCV genotype la strain H77 (provided by ViroPharma Inc., Exton, Pa., U.S.) and subcloned as described above. The cloning into the pFastBac™ HTa baculovirus expression vector generated a recombinant fusion protein containing an additional N-terminal 28 residues that comprised a hexahistidine tag and a rTEV protease cleavage site. The Bac-to-Bac™ baculovirus expression system (Gibco/BRL) was used to produce the recombinant baculovirus for protein expression.
His-tagged NS3-NS4A heterodimer protease was expressed by infecting Sf21 insect cells (Invitrogen) at a density of 10^6 cells/mL with the recombinant baculovirus at a multiplicity of infection of 0.1-0.2 at 27° C. The infected culture was harvested 48 to 64 h later by centrifugation at 4° C. The cell pellet was homogenized in 50 mM sodium phosphate, pH 7.5, 40% glycerol (w/v), 2 mM β-mercaptoethanol. His-NS3-NS4A heterodimer protease was then extracted from the cell lysate with 1.5% NP-40, 0.5% Triton X-100, 0.5M NaCl, and a DNase treatment. […]

[4] = HCV 1a NS3-NS4A protease, read-out: IC50 HCV-1a

SMILES	pIC50 [1]	pEC50 (HCV replicon 1b)	pIC50 [2]	pEC50 (HCV replicon 1a)	pIC50 [3, 4]	pIC50 [3]
COc1ccc2c(O[C@@H]3C[C@H]4C(=O)N[C@]5(C(=O)O)CC5/C=C\CCCCC[C@H](NC(=O)OC(C)(C)C)C(=O)N4C3)cc(-c3ccccc3)nc2c1 (stereo partly drawn) [II]	6.17	7.57	4.44	7.47	8.11	–
COc1ccc2c(O[C@@H]3C[C@H]4C(=O)N[C@]5(C(=O)O)CC5/C=C\CCCCC[C@H](NC(=O)OC(C)(C)C)C(=O)N4C3)cc(-c3csc(NC(C)=O)n3)nc2c1 (stereo partly drawn) [III]	6.31	8.33	4.51	8.35	8.39	–
COc1ccc2c(O[C@@H]3C[C@H]4C(=O)N[C@]5(C(=O)O)CC5/C=C\CCCCC[C@H](NC(=O)OC5CCCC5)C(=O)N4C3)cc(-c3csc(NC(C)C)n3)nc2c1 (stereo partly drawn) [IV]	6.70	9.00	4.80	8.68	–	8.37
